Experimental data from PubChem BioAssay AID1421 (Emory University Molecular Libraries Screening Center, 2008).
Activity calls are given as the source filed them. How the calls were made is not given here.

molecular target: Prostaglandin E2 receptor EP2 subtype (Homo sapiens) (UniProt P43116); assay: EP2 receptor modulators, dose response, cell-based, human EP2, PGE2 EC50 shift (AID 1421); settings: EP2-expressing cells, PGE2 EC50 shift by compound
Sequence (P43116 whole entry, looked up): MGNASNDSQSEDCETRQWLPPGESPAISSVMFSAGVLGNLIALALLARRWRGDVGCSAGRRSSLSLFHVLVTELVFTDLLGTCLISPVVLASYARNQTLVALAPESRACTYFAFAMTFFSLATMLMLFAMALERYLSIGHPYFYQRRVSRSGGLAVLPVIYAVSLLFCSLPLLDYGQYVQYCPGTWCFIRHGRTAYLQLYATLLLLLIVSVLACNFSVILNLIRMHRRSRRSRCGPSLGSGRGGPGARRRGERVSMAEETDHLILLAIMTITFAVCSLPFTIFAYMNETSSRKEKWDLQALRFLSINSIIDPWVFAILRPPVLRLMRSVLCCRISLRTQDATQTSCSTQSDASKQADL

SMILES | outcome
COc1cc2c(cc1OC)-c1cc(N3CCCc4ccccc43)nc(=O)n1CC2 | active
CC(C)(C)C1CCC(OC(=O)c2ccncc2)CC1 (stereo not drawn) | active
CC1CCCC(C)N1C(=O)c1ccccc1Nc1ccc(SC(F)F)cc1 (stereo not drawn) | active

same assay, conditions: EP2-expressing cells, PGE2 EC50 shift by compound; measured here: PGE2 EC50 at 6.7 uM compound

SMILES | PGE2 EC50 with compound [nM]
[N-]=[N+]=Nc1ccc(C(=O)CSC[C@H](NC(=O)CC[C@H](N)C(=O)O)C(=O)NCC(=O)O)cc1 | 0.8
COc1cc2c(cc1OC)-c1cc(N3CCCc4ccccc43)nc(=O)n1CC2 | 1.98
Cc1ccccc1NC(=O)CSc1nc(COc2ccccc2)nc2ccccc12 | 1.24
Oc1c(Cl)cc(Cl)cc1Sc1cc(Cl)cc(Cl)c1O | 0.58
CC(=O)c1sc2nc(-c3ccc(C)cc3)c3c(c2c1N)CCCC3 | 2.47
O=C(N=C1SCC(=O)N1c1ccccc1Cl)c1ccccc1 | 1.03
C=CCSc1nc2ccccc2c(=O)n1Cc1ccccc1 | 0.72
CCOC(=O)c1c(NC(=O)CSc2ncnc3[nH]ncc23)sc2c1CCC(C)C2 (stereo not drawn) | 0.67
CC(=O)OCC(=O)[C@@]12OC(C)(C)O[C@@H]1C[C@H]1[C@H]3CC=C4C[C@@H](O)CC[C@]4(C)[C@@H]3CC[C@@]12C | 0.97
CC(C)(C)C1CCC(OC(=O)c2ccncc2)CC1 (stereo not drawn) | 1.16
S=C(Nc1ccccc1Cl)N(Cc1ccccc1)Cc1ccccn1 | 1.62
CCn1ncc(Cl)c1C(=O)Nc1cc(Cl)ccc1Cl | 0.7
Clc1ccc(Cn2c(/C=C/c3ccco3)nc3ccccc32)cc1 | 1.38
CCCCNc1nc(N(C)c2ccccc2)nc(-n2ccnc2)n1 | 1.11
CCCc1nc(SC2CCCC2)c2c(=O)n(C)c(=O)n(C)c2n1 | 0.75
O=C(c1ccccc1)N1N=C(c2ccccc2)CC1c1ccccc1O (stereo not drawn) | 1.14
CCOC(=O)c1c(N)nn(C(=O)C(C)(C)C)c1-c1ccccc1 | 0.96
Cc1sc2ncnc(SCc3ccco3)c2c1C | 1.33
COc1ccccc1/C=C/C(=O)OCC(=O)Nc1ccccc1Sc1ccccc1 | 0.76
FC(F)(F)c1cccc(-c2cc3ccccc3nc2N2CCCC2)c1 | 1.36

SMILES | PGE2 EC50 with compound [nM]
S=c1[nH]nc(-c2ccccc2)n1/N=C/c1ccc(-c2ccccc2Cl)o1 | 2.43
CCOC(=O)C1=NN(c2cccc(C)c2)C2(S1)SC(C(C)=O)=C(C)N2c1ccccc1 (stereo not drawn) | 0.31
O=C(NNc1ccc([N+](=O)[O-])cc1[N+](=O)[O-])C1C2CCCCC21 (stereo not drawn) | 0.66
CC1(C)Cc2ccccc2-c2nc3n(c(=O)c21)CCS3 | 0.79
CC1CCCC(C)N1C(=O)c1ccccc1Nc1ccc(SC(F)F)cc1 (stereo not drawn) | 1.05
COc1ccc(N=N/C(=C\O)C(=O)c2cccs2)cc1 | 1.42
Cc1ccc2nc(N3CCC(C(=O)O)CC3)nc(-c3ccccc3)c2c1 | 1.19
N#Cc1sc2nc(N3CCCCC3)c3c(c2c1N)CCCC3 | 1.33
COC(=O)CC1C(C)(C)C(OC(C)=O)[C@@H]2[C@@H](OC(C)=O)[C@]34O[C@@]2(O)[C@]1(C)C3CC[C@]1(C)C4=CC(=O)O[C@H]1c1ccoc1 (stereo partly drawn) | 0.74
C=CCCC1(C)C(=O)N(c2ccccc2)c2ccccc21 (stereo not drawn) | 1.2
CC(C)Oc1ccc(Cc2n[nH]c(=S)n2Cc2ccccc2)cc1Cl | 1.25
Cc1cc(C)c(S(=O)(=O)N(C2=NCCS2)S(=O)(=O)c2c(C)cc(C)cc2C)c(C)c1 | 0.99
CCOc1ccccc1C(=O)Nc1ccccc1-c1ccccc1 | 1.34
CCCCOC(=O)CSc1nc(N)c(C#N)c(-c2ccc(OCC)cc2)c1C#N | 1.39
CC(C)(Oc1ccc(Cl)cc1)C(=O)N(Cc1ccccc1)c1ccccn1 | 1.07
CCCCOc1cc(C)nc(NCc2ccccc2)n1 | 1.47
CC(C)Cc1nc2sc3c(=O)[nH]cnc3c2c2c1CCC2 | 1.48
CCOc1cccc(CNc2ccc(O)cc2)c1OCc1ccc(Cl)cc1 | 1.41
C=CCc1cc(C=C2C(=O)N(C)C(=O)N(C)C2=O)cc(OCC)c1OCc1ccccc1 | 0.94
CNc1oc(-c2ccc(Cl)cc2)nc1P(=O)(c1ccccc1)c1ccccc1 | 0.76
